Experimental data from US11584710B2, “Compounds for treating infections” (HORITZONTS TECNOLOGICS HUNGARY KORLÁTOLT FELELOSSÉGU …, priority 2017, dated 2023).

Legend:
A. terreus [1] = tested on: A. terreus; design: key: I = intermediate activity; S = susceptibility; R = Resistance; details: A. terreus clinical strain; cited from earlier work
C. Krusei = tested on: C. Krusei; design: key: I = intermediate activity; S = susceptibility; R = Resistance; details: C. Krusei clinical strain; cited from earlier work
C. tropicalis [2] = tested on: C. tropicalis; design: key: I = intermediate activity; S = susceptibility; R = Resistance; details: C. tropicalis clinical strain; cited from earlier work
A. flavus [3] = tested on: A. flavus; design: key: I = intermediate activity; S = susceptibility; R = Resistance; details: A. flavus clinical strain; cited from earlier work
A. niger [4] = tested on: A. niger; design: key: I = intermediate activity; S = susceptibility; R = Resistance; details: A. niger clinical strain; cited from earlier work
C. lusitaniae [5] = tested on: C. lusitaniae; design: key: I = intermediate activity; S = susceptibility; R = Resistance; details: C. lusitaniae clinical strain; cited from earlier work
C. parapsilosis [6] = tested on: C. parapsilosis; design: key: I = intermediate activity; S = susceptibility; R = Resistance; details: C. parapsilosis clinical strain; cited from earlier work
A. fumigatus [7] = tested on: A. fumigatus; design: key: I = intermediate activity; S = susceptibility; R = Resistance; details: A. fumigatus clinical strain; cited from earlier work
C. guillermondii [8] = tested on: C. guillermondii; design: key: I = intermediate activity; S = susceptibility; R = Resistance; details: C. guillermondii clinical strain; cited from earlier work
C. glabrata = tested on: C. glabrata; design: key: I = intermediate activity; S = susceptibility; R = Resistance; details: C. glabrata clinical strain; cited from earlier work
C. albicans [9] = tested on: C. albicans; design: key: I = intermediate activity; S = susceptibility; R = Resistance; details: C. albicans clinical strain; cited from earlier work
S. cerevisiae [10] = tested on: S. cerevisiae; design: key: I = intermediate activity; S = susceptibility; R = Resistance; details: S. cerevisiae clinical strain; cited from earlier work
C. tropicalis [11] = test: Antifungal disk diffusion susceptibility test (CLSI M44); format: cell-based; details: Candida tropicalis
Protocol: (§1) Filamentous fungi and yeasts strains, from clinical origin, were supplied by Microbiology Service from The Princess Hospital, Madrid. They are detailed in Table IX.
(§2) Filamentous fungi and yeast cells suspensions in distilled water was prepared from a culture of 24-48 h, depending on species, in Sabouraud agar. Each suspension was adjusted to a fixed size inoculum of 1-5×10^8 CFU/ml with a spectrophotometer (Ferraro, MJ National Committee for Clinical Laboratory Standards. 2000).
(§3) Antifungal susceptibility tests were developed following the standardized methodology detailed in document CLSI: M44-4: Method for Antifungal Disk diffusion susceptibility testing of yeasts consisting of disk diffusion on agar Muller-Hinton (supplemented with 2% glucose).

C. parapsilosis [12] = test: as above; format: cell-based; details: Lodderomyces parapsilosis
Protocol: as §1, §2, §3

C. albicans [13] = test: as above; format: cell-based; details: Candida albicans
Protocol: as §1, §2, §3

A. fumigatus [14] = test: as above; format: cell-based; details: Aspergillus fumigatus
Protocol: as §1, §2, §3

S. cerevisiae [15] = test: as above; format: cell-based; details: Saccharomyces cerevisiae
Protocol: as §1, §2, §3

C. guillermondii [16] = test: as above; format: cell-based
Protocol: as §1, §2, §3

A. terreus [17] = test: as above; format: cell-based; details: Aspergillus terreus
Protocol: as §1, §2, §3

C. lusitaniae [18] = test: as above; format: cell-based; details: Clavispora lusitaniae
Protocol: as §1, §2, §3

A. flavus [19] = test: as above; format: cell-based; details: Aspergillus flavus
Protocol: as §1, §2, §3

A. niger [20] = test: as above; format: cell-based; details: Aspergillus niger
Protocol: as §1, §2, §3

N. cyriacigeorgica = test: Kirby-Bauer disk diffusion susceptibility test; format: cell-based; details: 300 μg/disc
Protocol: (§4) Bacterial strains, from clinical origin, were supplied by the National Center for Microbiology, Institute of Health Carlos III (Majadahonda, Madrid). They are detailed in Table 1.
(§5) Bacterial cells suspension in sterile saline was prepared from a culture of 24-72 h, depending on bacterial species, in Mueller-Hinton Agar with 5% sheep blood. Each suspension was adjusted to a fixed size inoculum of 1-5×10^8 CFU/ml with a spectrophotometer (Ferraro, MJ National Committee for Clinical Laboratory Standards. 2000).
(§6) Kirby-Bauer disk diffusion susceptibility test protocol was utilized to determine the sensitivity or resistance of pathogenic bacteria against the compounds and others antibiotics. The absence of growth around the disks is an indirect measure of the ability of this compound to inhibit an organism (Kirby, W., et al., Antibiotics Annu. 1956-1957:892). After 18 to 72 hours of incubation at 37° C., with or without CO2, under aerobic or anaerobic conditions, depending on the bacterial species, halo of growth inhibition were obtained and evaluated.
(§7) Interpretation of susceptibility and resistance was based on the presence or absence of a zone of inhibition surrounding the disk. Kirby-Bauer disk diffusion susceptibility test is a common method which uses antibiotic-impregnated wafers to test whether bacteria are affected by antibiotics. The size of the zone of inhibition depends on how effective the antibiotic is at stopping the growth of the bacterium. A stronger antibiotic will create a larger zone, because a lower concentration of the antibiotic is enough to stop growth.
(§8) All compounds were tested at 300 μg/disc.

K. pneumoniae = test: Kirby-Bauer disk diffusion susceptibility test; format: cell-based; details: 300 μg/disc
Protocol: as §4, §5, §6, §7, §8

N. carnea = test: Kirby-Bauer disk diffusion susceptibility test; format: cell-based; details: 300 μg/disc
Protocol: as §4, §5, §6, §7, §8

A. baumannii = test: Kirby-Bauer disk diffusion susceptibility test; format: cell-based; details: 300 μg/disc
Protocol: as §4, §5, §6, §7, §8

T. pulmonis = test: Kirby-Bauer disk diffusion susceptibility test; format: cell-based; details: 300 μg/disc
Protocol: as §4, §5, §6, §7, §8

C[C@@H]1[C@H](O)[C@@H](C)/C=C/C=C/C=C/C=C/C=C/C=C/C=C/[C@H](O[C@@H]2O[C@H](C)[C@@H](O)[C@H](N)[C@@H]2O)C[C@@H]2O[C@](O)(C[C@@H](O)C[C@@H](O)[C@H](O)CC[C@@H](O)C[C@@H](O)CC(=O)O[C@H]1C)C[C@H](O)[C@H]2C(=O)O [Amphotericin B]
Susceptibility of the strain (A. terreus [1]): I
Susceptibility of the strain (C. Krusei): I
Susceptibility of the strain (C. tropicalis [2]): S
Susceptibility of the strain (A. flavus [3]): I
Susceptibility of the strain (A. niger [4]): S
Susceptibility of the strain (C. lusitaniae [5]): I
Susceptibility of the strain (C. parapsilosis [6]): S
Susceptibility of the strain (A. fumigatus [7]): S
Susceptibility of the strain (C. guillermondii [8]): R
Susceptibility of the strain (C. glabrata): S
Susceptibility of the strain (C. albicans [9]): I
Susceptibility of the strain (S. cerevisiae [10]): I

Clc1ccccc1C(c1ccccc1)(c1ccccc1)n1ccnc1 [Clo, clotrimazol]
Susceptibility of the strain (A. terreus [1]): S
Susceptibility of the strain (C. Krusei): S
Susceptibility of the strain (C. tropicalis [2]): S
Susceptibility of the strain (A. flavus [3]): S
Susceptibility of the strain (A. niger [4]): S
Susceptibility of the strain (C. lusitaniae [5]): S
Susceptibility of the strain (C. parapsilosis [6]): S
Susceptibility of the strain (A. fumigatus [7]): S
Susceptibility of the strain (C. guillermondii [8]): R
Susceptibility of the strain (C. glabrata): S
zone of inhibition at 10 µg/disc (C. tropicalis [11]; C. tropicalis, 10 μg control): 25 mm
zone of inhibition at 10 µg/disc (C. parapsilosis [12]; C. parapsilosis, 10 μg control): 42 mm
zone of inhibition at 10 µg/disc (C. albicans [13]; C. albicans, 10 μg control): 15 mm
zone of inhibition at 10 µg/disc (A. fumigatus [14]; A. fumigatus, 10 μg control): 22 mm
zone of inhibition at 10 µg/disc (S. cerevisiae [15]; S. cerevisiae, 10 μg control): 30 mm
zone of inhibition at 10 µg/disc (C. guillermondii [16]; C. guillermondii, 10 μg control): 44 mm
zone of inhibition at 10 µg/disc (A. terreus [17]; A. terreus, 10 μg control): 26 mm
zone of inhibition at 10 µg/disc (C. lusitaniae [18]; C. lusitaniae, 10 μg control): 41 mm
zone of inhibition at 10 µg/disc (A. flavus [19]; A. flavus, 10 μg control): 32 mm
zone of inhibition at 10 µg/disc (A. niger [20]; A. niger, 10 μg control): 25 mm
Susceptibility of the strain (C. albicans [9]): S
Susceptibility of the strain (S. cerevisiae [10]): R

OC(Cn1cncn1)(Cn1cncn1)c1ccc(F)cc1F [Fluconazole]
Susceptibility of the strain (A. terreus [1]): R
Susceptibility of the strain (C. Krusei): S
Susceptibility of the strain (C. tropicalis [2]): S
Susceptibility of the strain (A. flavus [3]): R
Susceptibility of the strain (A. niger [4]): R
Susceptibility of the strain (C. lusitaniae [5]): S
Susceptibility of the strain (C. parapsilosis [6]): S
Susceptibility of the strain (A. fumigatus [7]): R
Susceptibility of the strain (C. guillermondii [8]): R
Susceptibility of the strain (C. glabrata): S
Susceptibility of the strain (C. albicans [9]): S
Susceptibility of the strain (S. cerevisiae [10]): S

CC(=O)N1CCN(c2ccc(OCC3COC(Cn4ccnc4)(c4ccc(Cl)cc4Cl)O3)cc2)CC1 (stereo not drawn) [Ket, ketoconazole]
Susceptibility of the strain (A. terreus [1]): S
Susceptibility of the strain (C. Krusei): S
Susceptibility of the strain (C. tropicalis [2]): S
Susceptibility of the strain (A. flavus [3]): S
Susceptibility of the strain (A. niger [4]): S
Susceptibility of the strain (C. lusitaniae [5]): S
Susceptibility of the strain (C. parapsilosis [6]): S
Susceptibility of the strain (A. fumigatus [7]): S
Susceptibility of the strain (C. guillermondii [8]): R
Susceptibility of the strain (C. glabrata): S
zone of inhibition at 50 µg/disc (C. tropicalis [11]; read-out: Activity (mm)): 25 mm
zone of inhibition at 50 µg/disc (C. parapsilosis [12]; read-out: Activity (mm)): 42 mm
zone of inhibition at 50 µg/disc (C. albicans [13]; read-out: Activity (mm)): 22 mm
zone of inhibition at 50 µg/disc (A. fumigatus [14]; read-out: Activity (mm)): 22 mm
zone of inhibition at 50 µg/disc (S. cerevisiae [15]; read-out: Activity (mm)): 30 mm
zone of inhibition at 50 µg/disc (C. guillermondii [16]; read-out: Activity (mm)): 44 mm
zone of inhibition at 50 µg/disc (A. terreus [17]; read-out: Activity (mm)): 26 mm
zone of inhibition at 50 µg/disc (C. lusitaniae [18]; read-out: Activity (mm)): 41 mm
zone of inhibition at 50 µg/disc (A. flavus [19]; read-out: Activity (mm)): 32 mm
zone of inhibition at 50 µg/disc (A. niger [20]; read-out: Activity (mm)): 25 mm
Susceptibility of the strain (C. albicans [9]): S
Susceptibility of the strain (S. cerevisiae [10]): S

NNC(=O)C(=O)NNc1ccc(Br)cc1 [MSG-216]
zone of inhibition at 150 µg/disc (C. tropicalis [11]; C. tropicalis, 150 μg/disc): 26 mm
zone of inhibition at 500 µg/disc (C. tropicalis [11]; C. tropicalis, 500 μg/disc): > 40 mm
zone of inhibition at 150 µg/disc (C. parapsilosis [12]; C. parapsilosis, 150 μg/disc): 11 mm
zone of inhibition at 500 µg/disc (C. parapsilosis [12]; C. parapsilosis, 500 μg/disc): > 40 mm
zone of inhibition at 150 µg/disc (C. albicans [13]; C. albicans, 150 μg/disc): 24 mm
zone of inhibition at 500 µg/disc (C. albicans [13]; C. albicans, 500 μg/disc): > 40 mm
zone of inhibition at 150 µg/disc (A. fumigatus [14]; A. fumigatus, 150 μg/disc): < 10 mm
zone of inhibition at 500 µg/disc (A. fumigatus [14]; A. fumigatus, 500 μg/disc): 10 mm
zone of inhibition at 150 µg/disc (S. cerevisiae [15]; S. cerevisiae, 150 μg/disc): 19 mm
zone of inhibition at 500 µg/disc (S. cerevisiae [15]; S. cerevisiae, 500 μg/disc): 35 mm
zone of inhibition at 150 µg/disc (C. guillermondii [16]; C. guillermondii, 150 μg/disc): 13 mm
zone of inhibition at 500 µg/disc (C. guillermondii [16]; C. guillermondii, 500 μg/disc): > 40 mm
zone of inhibition at 150 µg/disc (A. terreus [17]; A. terreus, 150 μg/disc): < 10 mm
zone of inhibition at 500 µg/disc (A. terreus [17]; A. terreus, 500 μg/disc): 10 mm
zone of inhibition at 150 µg/disc (C. lusitaniae [18]; C. lusitaniae, 150 μg/disc): 36 mm
zone of inhibition at 500 µg/disc (C. lusitaniae [18]; C. lusitaniae, 500 μg/disc): > 40 mm
zone of inhibition at 150 µg/disc (A. flavus [19]; A. flavus, 150 μg/disc): < 10 mm
zone of inhibition at 500 µg/disc (A. flavus [19]; A. flavus, 500 μg/disc): < 10 mm
zone of inhibition at 150 µg/disc (A. niger [20]; A. niger, 150 μg/disc): 10 mm
zone of inhibition at 500 µg/disc (A. niger [20]; A. niger, 500 μg/disc): 36 mm
Activity detected (mm) (N. cyriacigeorgica): 17 mm
Activity detected (mm) (K. pneumoniae): 11 mm
Activity detected (mm) (N. carnea): 14 mm
Activity detected (mm) (A. baumannii): 12 mm
Activity detected (mm) (T. pulmonis): 25 mm
